From patent publication US20250154154A1 (Relay Binney Street, 2nd Floor, priority 2020, published 2025) come the findings set out here.

Bounds are passed on as bounds.

One may read the IC50 as the concentration at which inhibition is half-maximal.

One test deals with SRC (Homo sapiens, UniProt P12931). The test can be described thus: SRC Biochemical Assay Protocol (microfluidic mobility shift assay, FLPeptide4 substrate). Summed up:
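Mobility-shift readout of phosphorylated FLPeptide4 (1.5 μM) after 90 min kinase reaction with 50 μM ATP and 0.26 nM SRC in pH 7.4 HEPES buffer. Compounds, tested 0.0017–100 μM, were preincubated 30 min with enzyme and peptide; IC50 from 4-parameter logistic fit versus neutral controls.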

A further test deals with RBE cells. The test can be described thus: Cell Viability Protocol (CellTiterGlo), RBE cells. The class given is cell-based. As to conditions: RBE or SNU-1079 cells, 72 or 120 hour, cell line and time not given. On the procedure:
RBE or SNU-1079 cells were cultured in T-75 or T-175 flasks at 37° C., 5% CO2, 95% relative humidity in RPMI 1640 medium with 10% FBS and 1% Penicillin/Streptomycin (media) and detached with 0.25% trypsin/EDTA at 80-90% confluency. Cells were then seeded in 40 μL media per well in 384-well flat-bottom polystyrene microplates (Corning Cat. No. 3570) at a seeding density of 1200 cells/well and incubated for 24 hours at 37° C. with 5% CO2, 95% relative humidity. On the next day, test compounds were prepared in 10 mM DMSO stock solution and diluted to the indicated concentrations in a 384-well compound source plate. DMSO was employed as a vehicle control. Compounds (40 nL) were transferred to 384-well cell culture plate(s) using the liquid handler Echo550. Plates were incubated at 37° C. with 5% CO2 for 72 hour or 120 hour (as indicated). CellTiterGlo reagent was warmed to 37° C. and added into each well (40 μL per well). Plates were incubated at room temperature for 30 min followed by reading on the EnSpire or EnVision plate reader. Relative viability (% remaining activity) was calculated relative to DMSO control and IC50 values were obtained from dose-response data fitted to a 4-parameter curve.

SRC, sequence (P12931 whole entry, species assumed): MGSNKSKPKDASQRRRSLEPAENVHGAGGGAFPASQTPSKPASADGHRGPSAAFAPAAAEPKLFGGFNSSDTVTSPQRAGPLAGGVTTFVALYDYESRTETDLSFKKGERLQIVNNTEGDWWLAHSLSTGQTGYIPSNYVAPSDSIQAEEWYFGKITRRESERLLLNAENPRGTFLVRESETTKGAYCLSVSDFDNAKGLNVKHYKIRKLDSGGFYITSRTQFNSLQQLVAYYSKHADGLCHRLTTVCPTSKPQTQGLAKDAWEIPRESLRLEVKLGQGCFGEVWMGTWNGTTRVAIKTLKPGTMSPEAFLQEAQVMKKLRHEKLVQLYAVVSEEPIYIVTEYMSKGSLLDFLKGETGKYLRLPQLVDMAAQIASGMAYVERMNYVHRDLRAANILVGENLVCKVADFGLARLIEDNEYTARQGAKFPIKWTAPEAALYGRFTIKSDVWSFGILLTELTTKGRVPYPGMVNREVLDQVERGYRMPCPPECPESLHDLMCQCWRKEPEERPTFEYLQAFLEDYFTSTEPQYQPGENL

Regarding `CC(c1ccccc1)N1CCC(C#Cc2c(-c3ccc(Oc4ccccc4)cc3)c3c(N)ncnc3n2C(C)C)CC1` (centres unmarked) [II-144, 7-isopropyl-5-(4-phenoxyphenyl)-6-((1-(1-phenylethyl)piperidin-4-yl)ethynyl)-7H-pyrrolo[2,3-d]pyrimidin-4-amine], the IC50 on SRC fell in the range of 0.01 to 1 µM; in the test with RBE cells it was 1 to 10 µM.

With `C=CC(=O)NC1CC(C#Cc2c(-c3ccc(Oc4ccccc4)cc3)c3c(N)ncnc3n2C2CCOC2)C1` (centres unmarked) [Example I-71], the IC50 on SRC was 0.01 to 1 µM; with RBE cells, at most 0.01 µM.

In the case of `COc1cc(-c2c(C#C[C@@H]3[C@H]4CN(C(=O)/C=C/CN(C)C)C[C@@H]34)n(C)c3ncnc(N)c23)ccc1Oc1ccccn1` [II-233, (E)-1-((1R,5S,6s)-6-((4-amino-5-(3-methoxy-4-(pyridin-2-yloxy)phenyl)-7-methyl-7H-pyrrolo[2,3-d]pyrimidin-6-yl)ethynyl)-3-azabicyclo[3.1.0]hexan-3-yl)-4-(dimethylamino) but-2-en-1-one], the concentration for half-maximal inhibition (IC50) at SRC and in the test with RBE cells was 0.01 to 1 µM in each case. Turning to `CC(C)N1CCC(C#Cc2c(-c3ccc(Oc4ccccc4)cc3)c3c(N)ncnc3n2C(C)C)CC1` [II-142, 7-isopropyl-6-((1-isopropylpiperidin-4-yl)ethynyl)-5-(4-phenoxyphenyl)-7H-pyrrolo[2,3-d]pyrimidin-4-amine], the IC50 on SRC was at most 0.01 µM; in the test on RBE cells, 0.01 to 1 µM. For `CC(C)n1c(C#CC2CCN(C(=O)/C=C/CN(C)C)CC2)c(-c2ccc(Oc3ccccc3)cc2)c2c(N)ncnc21` [Example I-48, (E)-1-(4-((4-amino-7-isopropyl-5-(4-phenoxyphenyl)-7H-pyrrolo[2,3-d]pyrimidin-6-yl)ethynyl)piperidin-1-yl)-4-(dimethylamino)but-2-en-1-one] the same measures were 0.01 to 1 µM and 0.01 to 1 µM. Taken in the same sequence, the figures for `C=CC(=O)N1CCC(C#Cc2c(-c3ccc(Oc4ccccc4)cc3)c3c(N)ncnc3n2C(C)c2ncon2)CC1` (centres unmarked) [Example I-59] were 0.01 to 1 µM and 0.01 to 1 µM. For `C=CC(=O)N1CCC(N2CC(C#Cc3c(-c4ccc(Oc5cccc(C)n5)c(OC)c4)c4c(N)ncnc4n3C)C2)C[C@H]1CO` (stereo partly drawn) [II-242, 1-((2S)-4-(3-((4-amino-5-(3-methoxy-4-(6-methylpyridin-2-yloxy)phenyl)-7-methyl-7H-pyrrolo[2,3-d]pyrimidin-6-yl)ethynyl)azetidin-1-yl)-2-(hydroxymethyl)piperidin-1-yl)prop-2-en-1-one] the same measures were 0.01 to 1 µM and 0.01 to 1 µM. Regarding `C=CC(=O)N1CCC(C#Cc2c(-c3ccc(Oc4ccccc4)cc3)c3c(N)ncnc3n2C2CCCNC2)CC1` (centres unmarked) [Example I-60], the IC50 on SRC and in the test on RBE cells was 0.01 to 1 µM each time. As for `CC(C)n1c(C#CC2CCN(Cc3ccccc3)CC2)c(-c2ccc(Oc3ccccc3)cc2)c2c(N)ncnc21` [II-145, 6-((1-benzylpiperidin-4-yl)ethynyl)-7-isopropyl-5-(4-phenoxyphenyl)-7H-pyrrolo[2,3-d]pyrimidin-4-amine], the IC50 on SRC was 0.01 to 1 µM; in the test on RBE cells, 1 to 10 µM. For `C=CC(=O)N1CCC(N2CC(C#Cc3c(-c4ccc(Oc5ccccn5)cc4)c4c(N)ncnc4n3C)C2)C[C@H]1CO` (stereo partly drawn) [II-244, 1-((2S)-4-(3-((4-amino-7-methyl-5-(4-(pyridin-2-yloxy)phenyl)-7H-pyrrolo[2,3-d]pyrimidin-6-yl)ethynyl)azetidin-1-yl)-2-(hydroxymethyl)piperidin-1-yl)prop-2-en-1-one] the same measures were 0.01 to 1 µM and 0.01 to 1 µM. For `C=CC(=O)N1CCC(N2CC(C#Cc3c(-c4ccc(Oc5ccccn5)cc4OC)c4c(N)ncnc4n3C)C2)C[C@H]1CO` (stereo partly drawn) [II-245, 1-((2S)-4-(3-((4-amino-5-(2-methoxy-4-(pyridin-2-yloxy)phenyl)-7-methyl-7H-pyrrolo[2,3-d]pyrimidin-6-yl)ethynyl)azetidin-1-yl)-2-(hydroxymethyl)piperidin-1-yl)prop-2-en-1-one] the same measures were 0.01 to 1 µM and 0.01 to 1 µM. For `CC(C)n1c(C#CC2CN(C(=O)CCl)C2)c(-c2ccc(Oc3ccccc3)cc2)c2c(N)ncnc21` [Example I-6] the same measures were at most 0.01 µM and 0.01 to 1 µM. As to `C=CC(=O)N1CCC(C#Cc2cn3ncnc(N)c3c2-c2ccc(Oc3ccccc3)cc2)CC1` [Example I-64], the IC50 at SRC was 0.01 to 1 µM; in the test on RBE cells, 1 to 10 µM.

`C=CC(=O)N1CCC(C#Cc2c(-c3ccc(Oc4ccccc4)cn3)c3c(N)ncnc3n2C(C)C)CC1` [Example I-55]: the IC50 at SRC and with RBE cells was 0.01 to 1 µM throughout.

Regarding `C=CC(=O)N1CCC(C#Cc2c(-c3ccc(Oc4ccccc4F)cc3)c3c(N)ncnc3n2C2CCOC2)CC1` (centres unmarked) [Example I-62], the IC50 at SRC and in the test on RBE cells was 0.01 to 1 µM throughout. As to `CC(C)n1c(C#CC2CCN(C(=O)CCl)CC2)c(-c2ccc(Oc3ccccc3)cc2)c2c(N)ncnc21` [Example I-29], the IC50 at SRC and in the test on RBE cells was 0.01 to 1 µM each time. As for `COc1cc(Oc2cccc(C)n2)ccc1-c1c(C#C[C@@H]2[C@H]3CN(C(=O)/C=C/CN4CCC(F)C4)C[C@@H]23)n(C)c2ncnc(N)c12` (stereo partly drawn) [II-236, (E)-1-((1R,5S,6s)-6-((4-amino-5-(2-methoxy-4-((6-methylpyridin-2-yl)oxy)phenyl)-7-methyl-7H-pyrrolo[2,3-d]pyrimidin-6-yl)ethynyl)-3-azabicyclo[3.1.0]hexan-3-yl)-4-(3-fluoropyrrolidin-1-yl)but-2-en-1-one], the IC50 at SRC and in the test on RBE cells was 0.01 to 1 µM in each case. Take `CN(C)C/C=C/C(=O)N1C[C@@H]2[C@@H](C#Cc3c(-c4ccc(Oc5cccc(F)c5)cc4)c4c(N)ncnc4n3C)[C@@H]2C1` [II-43]: the IC50 was 0.01 to 1 µM on SRC and at most 0.01 µM in the test with RBE cells. For `COCCN(C)C/C=C/C(=O)N1C[C@@H]2[C@@H](C#Cc3c(-c4ccc(Oc5cccc(C)n5)cc4OC)c4c(N)ncnc4n3C)[C@@H]2C1` [II-235, (E)-1-((1R,5S,6s)-6-((4-amino-5-(2-methoxy-4-((6-methylpyridin-2-yl)oxy)phenyl)-7-methyl-7H-pyrrolo[2,3-d]pyrimidin-6-yl)ethynyl)-3-azabicyclo[3.1.0]hexan-3-yl)-4-((2-methoxyethyl) (methyl)amino)but-2-en-1-one] the same measures were 0.01 to 1 µM and 1 to 10 µM. Taken in the same sequence, the figures for `Cc1cccc(Oc2ccc(-c3c(C#C[C@@H]4[C@H]5CN(C(=O)/C=C/CN(C)C)C[C@@H]45)n(C)c4ncnc(N)c34)cc2)n1` [II-46] were 0.01 to 1 µM and 0.01 to 1 µM. For `CC(C)n1c(C#CC2CCN(C(CO)c3ccccc3)CC2)c(-c2ccc(Oc3ccccc3)cc2)c2c(N)ncnc21` (centres unmarked) [II-143, 2-(4-((4-amino-7-isopropyl-5-(4-phenoxyphenyl)-7H-pyrrolo[2,3-d]pyrimidin-6-yl)ethynyl)piperidin-1-yl)-2-phenylethanol] the same measures were 0.01 to 1 µM and 1 to 10 µM. Take `CC(C)n1c(C#CC2CCNCC2)c(-c2ccc(Oc3ccccc3)cc2)c2c(N)ncnc21` [II-137, 7-isopropyl-5-(4-phenoxyphenyl)-6-(piperidin-4-ylethynyl)-7H-pyrrolo[2,3-d]pyrimidin-4-amine]: the IC50 at SRC was at most 0.01 µM; in the test with RBE cells it was 1 to 10 µM. With `C=CC(=O)N1CC[C@H](N2CC(C#Cc3c(-c4ccc(Oc5ccccc5)cc4)c4c(N)ncnc4n3C)C2)[C@H](C)C1` [III-65], at SRC, the IC50 lay within 0.01 to 1 µM.

Turning to `C=CC(=O)N1CCC(O)(C#Cc2c(-c3ccc(Oc4ccccc4)cc3)c3c(N)ncnc3n2C)C[C@H]1C` (some centres unmarked) [III-48], on SRC, the IC50 lay within 0.01 to 1 µM. The same measure, in the same setting: the figure for `CCC(=O)N1CCC(C#Cc2c(-c3ccc(Oc4ccccc4)cc3)c3c(N)ncnc3n2C2CCOC2)CC1` (centres unmarked) [II-156, 1-(4-((4-amino-5-(4-phenoxyphenyl)-7-(tetrahydrofuran-3-yl)-7H-pyrrolo[2,3-d]pyrimidin-6-yl)ethynyl)piperidin-1-yl)propan-1-one] is 0.01 to 1 µM; for `CC(C)n1c(C#CC2CNC2)c(-c2ccc(Oc3ccccc3)cc2)c2c(N)ncnc21` [II-152, 6-(azetidin-3-ylethynyl)-7-isopropyl-5-(4-phenoxyphenyl)-7H-pyrrolo[2,3-d]pyrimidin-4-amine] it is at most 0.01 µM. The same measure, in the same setting: the figure for `C=CC(=O)N1CCC(C#Cc2c(-c3ccc(Oc4cccc(C)c4)cc3)c3c(N)ncnc3n2C(C)C)CC1` [Example I-21] is 0.01 to 1 µM. Still for that read-out and setting: the figure for `CC(CO)n1c(C#CC2CCN(C(=O)/C=C/CN(C)C)CC2)c(-c2ccc(Oc3ccccc3)cc2)c2c(N)ncnc21` (centres unmarked) [III-31] is 0.01 to 1 µM; for `Cn1c(C#CC2CN(C(=O)/C=C/CN3CCC3)C2)c(-c2ccc(Oc3ccccc3)cc2)c2c(N)ncnc21` [III-81] it is 0.01 to 1 µM. Regarding `COC(=O)C(C)n1c(C#CC2CCNCC2)c(-c2ccc(Oc3ccccc3)cc2)c2c(N)ncnc21` (centres unmarked) [II-154, methyl 2-(4-amino-5-(4-phenoxyphenyl)-6-(piperidin-4-ylethynyl)-7H-pyrrolo[2,3-d]pyrimidin-7-yl)propanoate], on SRC, the IC50 is 0.01 to 1 µM. Still for that read-out and setting: the figure for `C=CC(=O)N1CC[C@H](C#Cc2c(-c3ccc(Oc4ccccc4)cc3)c3c(N)ncnc3n2C)C[C@@H]1C` [III-77] is 0.01 to 1 µM.
